Test systems include OVCAR-3; K562; Malme-3M; EKVX; NCI/ADR-RES; DU-145; MDA-N; KM12; SK-MEL-5; SF-539; NCI-H23; HOP-62; COLO 205; HCT-116; MCF7; MDA-MB-231; UACC-62; HOP-92; RXF 393.
Holding throughout (test): NCI-60 cell line screen, 48 h

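1) Cells in 96-well plates. 2) Compound, 48 h, 5 concentrations. 3) Linear interpolation between surrounding doses. 4) Unreached endpoint = highest concentration. GI50: concentration for 50% inhibition of growth.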 The source made the active and inactive calls. Rule as the data show it: active = GI50 up to about 1.1 µM and inactive = higher. Bounds are passed on as bounds.

Consider `Cc1cccc(/C=N/NC(=S)Nc2ccc(Cl)cc2)n1`, for which the GI50 in the assay with OVCAR-3 is 0.968 µM (active); with K562, 0.329 µM (active); with Malme-3M it was 0.665 µM (active); with EKVX, 2.41 µM (inactive); in the assay on NCI/ADR-RES, 0.527 µM (active); in the assay on DU-145 it was 3.31 µM (inactive). Further, the GI50 was 0.308 µM (active) with MDA-N; 0.977 µM (active) in the assay with KM12; 0.993 µM (active) in the assay on SK-MEL-5; 2.52 µM (inactive) in the assay on SF-539; 4.38 µM (inactive) with NCI-H23; 1.08 µM (active) with HOP-62. Also, the GI50 in the assay on COLO 205 was 0.658 µM (active); in the assay with HCT-116, 1.47 µM (inactive); in the assay with MCF7, 0.607 µM (active); with MDA-MB-231, 0.897 µM (active); in the assay with UACC-62, 0.643 µM (active); in the assay on HOP-92 it was 3 µM (inactive).
For the molecule `Nc1nc(N)c2ncn(-c3ccc(Cl)c(Cl)c3)c2n1`, the GI50 was 14.5 µM (inactive) in the assay on OVCAR-3; 17.9 µM (inactive) in the assay on Malme-3M; 25.5 µM (inactive) with EKVX; 37.7 µM (inactive) in the assay with NCI/ADR-RES; 12.7 µM (inactive) with RXF 393; 18.5 µM (inactive) in the assay with DU-145. The GI50 in the assay with MDA-N was 30.9 µM (inactive); with KM12 it was 25.4 µM (inactive); in the assay on SK-MEL-5, 31.2 µM (inactive); with SF-539, 21 µM (inactive); in the assay on NCI-H23 it was 15.9 µM (inactive); in the assay on HOP-62, 29.6 µM (inactive). In addition, the GI50 in the assay on COLO 205 is 14.9 µM (inactive); in the assay on HCT-116, 16.1 µM (inactive); in the assay on MCF7, 40.1 µM (inactive); with MDA-MB-231 it was 23.1 µM (inactive); in the assay on UACC-62, 10.1 µM (inactive); in the assay on HOP-92 it was 52.7 µM (inactive).
Regarding `CCN(CC)CCNC(=O)c1cc2cc(NC(=O)c3cc4cc(N)ccc4[nH]3)ccc2[nH]1`, the GI50 was 18.6 µM (inactive) in the assay with K562; 97.1 µM (inactive) in the assay with EKVX; > 100 µM (inactive) in the assay with NCI/ADR-RES; 20.3 µM (inactive) with RXF 393; 19.6 µM (inactive) with DU-145; 33.9 µM (inactive) in the assay on MDA-N. In addition, the GI50 in the assay on KM12 was 14.7 µM (inactive); in the assay on SF-539 it was 31.1 µM (inactive); in the assay on NCI-H23, 50.6 µM (inactive); in the assay on HOP-62 it was 55 µM (inactive); in the assay with COLO 205, 12.9 µM (inactive); in the assay on HCT-116, 16 µM (inactive). In addition, the GI50 in the assay with MCF7 was 15.1 µM (inactive); in the assay with MDA-MB-231, 25.4 µM (inactive); with UACC-62, 23.4 µM (inactive); with HOP-92, 24 µM (inactive).
As to `C/C=C1/CC(C(=O)OC)N(C(=O)OCc2ccccc2)C1=S` (stereo unspecified), the GI50 was > 100 µM (inactive) with OVCAR-3; > 100 µM (inactive) with K562; > 100 µM (inactive) with Malme-3M; 84.3 µM (inactive) in the assay on EKVX; > 100 µM (inactive) in the assay with NCI/ADR-RES; > 100 µM (inactive) in the assay on RXF 393. In addition, the GI50 with DU-145, in the assay with MDA-N, in the assay with KM12, in the assay on SK-MEL-5, in the assay with NCI-H23 and in the assay on HOP-62 was > 100 µM (inactive) in each case. Further, the GI50 in the assay on COLO 205, in the assay on HCT-116, in the assay on MCF7, with MDA-MB-231, with UACC-62 and in the assay on HOP-92 was > 100 µM (inactive) each time.
For the molecule `CN(C)CCCSc1nc2ccccc2[nH]1`, the GI50 in the assay on OVCAR-3, in the assay on K562, in the assay with Malme-3M, in the assay on EKVX, in the assay on NCI/ADR-RES and with RXF 393 was > 100 µM (inactive) each time. Besides, the GI50 in the assay with DU-145, in the assay on MDA-N, with KM12, with SK-MEL-5, with NCI-H23 and in the assay with HOP-62 was > 100 µM (inactive) each time. Further, the GI50 in the assay on COLO 205, in the assay with HCT-116, in the assay with MCF7, with MDA-MB-231, in the assay on UACC-62 and with HOP-92 was > 100 µM (inactive) each time.
In the case of `O=C(NC/C(Cl)=C/Cl)Nc1c2ccccc2nc2ccccc12`, the GI50 is 44.5 µM (inactive) with OVCAR-3; > 100 µM (inactive) in the assay with Malme-3M; > 100 µM (inactive) in the assay with EKVX; 52 µM (inactive) with NCI/ADR-RES; > 100 µM (inactive) with RXF 393; 54.5 µM (inactive) with DU-145. Besides, the GI50 in the assay on MDA-N is > 100 µM (inactive); in the assay on KM12 it was > 100 µM (inactive); in the assay on SK-MEL-5, 57.9 µM (inactive); in the assay on SF-539 it was 25.1 µM (inactive); in the assay with NCI-H23, > 100 µM (inactive); in the assay with HOP-62, > 100 µM (inactive). The GI50 in the assay with COLO 205 was 29 µM (inactive); with HCT-116, 24.3 µM (inactive); in the assay with MCF7, > 100 µM (inactive); in the assay on MDA-MB-231 it was 22 µM (inactive); in the assay with UACC-62, > 100 µM (inactive); with HOP-92, 41.6 µM (inactive).
For the molecule `C=C[C@@]1(C)CC[C@@H]2[C@@]3(C1)O[C@H]3CC1[C@](C)(C(=O)OC)CCC[C@@]12C` (stereo partly specified), the GI50 is 17 µM (inactive) in the assay with OVCAR-3; 32.8 µM (inactive) in the assay with K562; 17.7 µM (inactive) in the assay on Malme-3M; 20.7 µM (inactive) in the assay on EKVX; 20 µM (inactive) with NCI/ADR-RES; 16.1 µM (inactive) with RXF 393. For the same molecule, the GI50 in the assay with DU-145 is 30.4 µM (inactive); with MDA-N, 22.1 µM (inactive); in the assay on KM12 it was 35.6 µM (inactive); with SK-MEL-5, 17.8 µM (inactive); in the assay on NCI-H23 it was 24.4 µM (inactive); in the assay on HOP-62 it was 20 µM (inactive). Further, the GI50 was 16.6 µM (inactive) with COLO 205; 13.7 µM (inactive) with HCT-116; 15.6 µM (inactive) with MCF7; 23 µM (inactive) with MDA-MB-231; 27 µM (inactive) in the assay with UACC-62; 16.7 µM (inactive) with HOP-92.
With `CCOC(=O)N/N=C(\Cc1ccc([N+](=O)[O-])cc1)OCC`, the GI50 with OVCAR-3, in the assay on K562, in the assay with EKVX, in the assay on NCI/ADR-RES, in the assay on RXF 393 and with DU-145 was > 100 µM (inactive) throughout. Further, the GI50 in the assay on MDA-N, with KM12, in the assay on SK-MEL-5, in the assay on SF-539, in the assay with NCI-H23 and in the assay on HOP-62 was > 100 µM (inactive) each time. Also, the GI50 in the assay with COLO 205, in the assay on HCT-116, with MCF7, in the assay on MDA-MB-231, in the assay on UACC-62 and with HOP-92 was > 100 µM (inactive) in each case.
With `CC12CCCC(O)C1CCC1=CC3(CCC12)SCCS3` (stereo unspecified), the GI50 in the assay on OVCAR-3, in the assay with K562, with Malme-3M, with NCI/ADR-RES, in the assay on DU-145 and in the assay on MDA-N was > 10 µM (inactive) in each case. Also, the GI50 with KM12, with SK-MEL-5, in the assay with NCI-H23, in the assay with HOP-62, in the assay with COLO 205 and with MCF7 was > 10 µM (inactive) each time. The GI50 with MDA-MB-231, with UACC-62 and in the assay on HOP-92 was > 10 µM (inactive) in each case.
For `C[Si](C)(C)c1ccc(-c2c3ccc(-c4cc(Br)cc(Br)c4)nc3nc3nc(-c4cc(Br)cc(Br)c4)ccc23)cc1`, the GI50 with OVCAR-3, with Malme-3M, in the assay with EKVX, in the assay with NCI/ADR-RES, in the assay with DU-145 and in the assay with MDA-N was > 100 µM (inactive) throughout. The GI50 in the assay on KM12, in the assay on SK-MEL-5, in the assay on NCI-H23, with HOP-62, in the assay with COLO 205 and in the assay with HCT-116 was > 100 µM (inactive) in each case. Also, the GI50 with MCF7, in the assay on MDA-MB-231, in the assay on UACC-62 and in the assay with HOP-92 was > 100 µM (inactive) throughout.
Turning to `CCc1ccc2c(c1)/C(=C1/Nc3ccccc3C1=O)C(=O)N2`, the GI50 in the assay on OVCAR-3 is 20.6 µM (inactive); in the assay with K562, 22.3 µM (inactive); with Malme-3M, 35.4 µM (inactive); with EKVX, 5.36 µM (inactive); in the assay on NCI/ADR-RES, 28.7 µM (inactive); with RXF 393, 15.1 µM (inactive). Moreover, the GI50 in the assay with DU-145 is 41.3 µM (inactive); in the assay with MDA-N, 34.5 µM (inactive); with KM12 it was 0.428 µM (active); in the assay with SK-MEL-5 it was 9.62 µM (inactive); with NCI-H23, 29.6 µM (inactive); in the assay on HOP-62, 14.2 µM (inactive). Besides, the GI50 in the assay with COLO 205 was 14.5 µM (inactive); in the assay on HCT-116, 7.43 µM (inactive); in the assay with MCF7, 1.78 µM (inactive); with MDA-MB-231, 34 µM (inactive); in the assay with UACC-62, 15.4 µM (inactive); with HOP-92, 33.3 µM (inactive).

(Values after ChEMBL document CHEMBL1201862, “PubChem BioAssay data set” (2004).)
